System: MV-4-11 cells
Assay: Gene expression microarray analysis (Affymetrix PrimeView) and GSEA
Assay type: cell-based, human
Set-up: RFU PODN (11730768_x_at) / Fold change /veh PODN (11730768_x_at) / RFU LINC00158 (11744669_a_at) / Fold change /veh LINC00158 (11744669_a_at) / RFU DUSP10 (11751237_a_at) / Fold change /veh DUSP10 (11751237_a_at) / RFU ID3 (11757404_x_at) / Fold change /veh ID3 (11757404_x_at) / RFU PLEKHG5 (11737974_s_at) / Fold change /veh PLEKHG5 (11737974_s_at) / RFU LRRC4B (11730491_at) / Fold change /veh LRRC4B (11730491_at) / RFU GIMAP4 (11747438_a_at) / Fold change /veh GIMAP4 (11747438_a_at) / RFU KRT8 (11758183_x_at) / Fold change /veh KRT8 (11758183_x_at) / RFU CNN1 (11734310_a_at) / Fold change /veh CNN1 (11734310_a_at) / RFU VPS37D (11726825_at) / Fold change /veh VPS37D (11726825_at) / RFU C10orf10 (11716522_x_at) / Fold change /veh C10orf10 (11716522_x_at) / RFU KIR2DL2 /// KIR2DL4 /// KIR2DL5A /// KIR2DL5B /// KIR2DS1 /// KIR2DS2 /// KIR2DS3 /// KIR2DS4 /// KIR3DL3 /// KIR3DL3 /// KIR3DS1 (11738374_at) / Fold change /veh KIR2DL2 /// KIR2DL4 /// KIR2DL5A /// KIR2DL5B /// KIR2DS1 /// KIR2DS2 /// KIR2DS3 /// KIR2DS4 /// KIR3DL3 /// KIR3DL3 /// KIR3DS1 (11738374_at) / RFU C1QL1 (11718748_at) / Fold change /veh C1QL1 (11718748_at) / RFU TMPRSS4 (11747572_a_at) / Fold change /veh TMPRSS4 (11747572_a_at) / RFU HAMP (11756126_x_at) / Fold change /veh HAMP (11756126_x_at) / RFU RNFT2 (11725882_a_at) / Fold change /veh RNFT2 (11725882_a_at) / RFU NR4A2 (11747474_a_at) / Fold change /veh NR4A2 (11747474_a_at) / RFU ABCC12 (11746883_a_at) / Fold change /veh ABCC12 (11746883_a_at) / RFU TMEM136 (11760407_x_at) / Fold change /veh TMEM136 (11760407_x_at) / RFU CLDN22 /// WWC2 (11732394_at) / Fold change /veh CLDN22 /// WWC2 (11732394_at) / RFU HLA-DPB1 (11760878_x_at) / Fold change /veh HLA-DPB1 (11760878_x_at) / RFU SPINT1 (11716480_a_at) / Fold change /veh SPINT1 (11716480_a_at) / RFU GAP43 (11754022_s_at) / Fold change /veh GAP43 (11754022_s_at) / RFU A4GNT (11735810_at) / Fold change /veh A4GNT (11735810_at) / RFU PRB3 (11715151_x_at) / Fold change /veh PRB3 (11715151_x_at) / RFU TUBB4B (11761932_at) / Fold change /veh TUBB4B (11761932_at) / RFU CAPN14 (11732068_a_at) / Fold change /veh CAPN14 (11732068_a_at) / RFU TMCC2 (11721928_a_at) / Fold change /veh TMCC2 (11721928_a_at) / RFU IRGQ (11745062_a_at) / Fold change /veh IRGQ (11745062_a_at) / RFU FAM174B (11720279_a_at) / Fold change /veh FAM174B (11720279_a_at) / RFU TMPRSS4 (11748680_a_at) / Fold change /veh TMPRSS4 (11748680_a_at) / RFU FAM212B (11763350_a_at) / Fold change /veh FAM212B (11763350_a_at) / RFU PLEKHG5 (11743358_a_at) / Fold change /veh PLEKHG5 (11743358_a_at) / RFU ZSCAN30 (11745921_a_at) / Fold change /veh ZSCAN30 (11745921_a_at) / RFU CMKLR1 (11741424_a_at) / Fold change /veh CMKLR1 (11741424_a_at) / RFU LOC101060620 /// MAPK8IP1 (11723275_at) / Fold change /veh LOC101060620 /// MAPK8IP1 (11723275_at) / RFU SPTSSB (11747773_x_at) / Fold change /veh SPTSSB (11747773_x_at) / RFU PRSS12 (11739890_at) / Fold change /veh PRSS12 (11739890_at) / RFU BIN1 (11741810_x_at) / Fold change /veh BIN1 (11741810_x_at) / RFU WNT11 (11732464_a_at) / Fold change /veh WNT11 (11732464_a_at) / RFU C10orf10 (11716521_a_at) / Fold change /veh C10orf10 (11716521_a_at) / RFU C5orf56 (11738089_at) / Fold change /veh C5orf56 (11738089_at) / RFU CYB561 (11721691_x_at) / Fold change /veh CYB561 (11721691_x_at) / RFU ANKRD19P (11752326_a_at) / Fold change /veh ANKRD19P (11752326_a_at) / RFU OR2T12 /// OR2T33 /// OR2T8 (11738714_s_at) / Fold change /veh OR2T12 /// OR2T33 /// OR2T8 (11738714_s_at) / RFU VCAN (11748164_a_at) / Fold change /veh VCAN (11748164_a_at) / RFU JSRP1 (11732532_at) / Fold change /veh JSRP1 (11732532_at) / RFU KRTAP10-11 (11738290_x_at) / Fold change /veh KRTAP10-11 (11738290_x_at) / RFU MYO3A (11730013_a_at) / Fold change /veh MYO3A (11730013_a_at) / RFU EBF3 (11725865_a_at) / Fold change /veh EBF3 (11725865_a_at) / RFU CAMK2N1 (11719241_x_at) / Fold change /veh CAMK2N1 (11719241_x_at) / RFU C5orf56 (11738088_a_at) / Fold change /veh C5orf56 (11738088_a_at) / RFU OLFML3 (11715873_a_at) / Fold change /veh OLFML3 (11715873_a_at) / RFU LOC100653217 /// NTM (11731650_a_at) / Fold change /veh LOC100653217 /// NTM (11731650_a_at) / RFU MAPK11 (11762145_a_at) / Fold change /veh MAPK11 (11762145_a_at) / RFU FIZ1 (11724087_x_at) / Fold change /veh FIZ1 (11724087_x_at) / RFU OASL (11726364_x_at) / Fold change /veh OASL (11726364_x_at) / RFU SOX15 (11748057_x_at) / Fold change /veh SOX15 (11748057_x_at) / RFU CD79A (11719716_a_at) / Fold change /veh CD79A (11719716_a_at) / RFU HIST1H1D (11736915_at) / Fold change /veh HIST1H1D (11736915_at) / RFU CASKIN2 (11723855_a_at) / Fold change /veh CASKIN2 (11723855_a_at) / RFU LOC730098 (11760151_x_at) / Fold change /veh LOC730098 (11760151_x_at) / RFU OR4N2 (11742367_at) / Fold change /veh OR4N2 (11742367_at) / RFU PRRT2 (11749266_a_at) / Fold change /veh PRRT2 (11749266_a_at) / RFU SNX32 (11753110_a_at) / Fold change /veh SNX32 (11753110_a_at) / RFU CDHR5 (11726645_a_at) / Fold change /veh CDHR5 (11726645_a_at) / RFU RCAN1 (11760418_a_at) / Fold change /veh RCAN1 (11760418_a_at) / RFU FAM167A (11723789_a_at) / Fold change /veh FAM167A (11723789_a_at) / RFU FAM26E (11764081_at) / Fold change /veh FAM26E (11764081_at) / RFU ISYNA1 (11749810_s_at) / Fold change /veh ISYNA1 (11749810_s_at) / RFU ACY1 (11761880_at) / Fold change /veh ACY1 (11761880_at) / RFU 11764098_at / Fold change /veh 11764098_at / RFU SAMD14 (11745864_x_at) / Fold change /veh SAMD14 (11745864_x_at) / RFU NPB (11741838_a_at) / Fold change /veh NPB (11741838_a_at) / RFU TMPRSS6 (11731388_a_at) / Fold change /veh TMPRSS6 (11731388_a_at) / RFU KRTAP10-2 (11738614_at) / Fold change /veh KRTAP10-2 (11738614_at) / RFU ARHGAP8 /// PRR5-ARHGAP8 (11727945_x_at) / Fold change /veh ARHGAP8 /// PRR5-ARHGAP8 (11727945_x_at) / RFU KRTAP5-7 /// NADSYN1 (11734609_at) / Fold change /veh KRTAP5-7 /// NADSYN1 (11734609_at) / RFU RASL12 (11751679_a_at) / Fold change /veh RASL12 (11751679_a_at) / RFU CDKN2B (11736163_a_at) / Fold change /veh CDKN2B (11736163_a_at) / RFU PRF1 (11729649_at) / Fold change /veh PRF1 (11729649_at) / RFU, ZNF638 /// ZNF638-IT1 / Fold change vs veh, ZNF638 /// ZNF638-IT1 / RFU, PANK3 / Fold change vs veh, PANK3 / RFU, SH3YL1 / Fold change vs veh, SH3YL1 / RFU, ZEB2 / Fold change vs veh, ZEB2 / RFU, NRIP1 / Fold change vs veh, NRIP1 / RFU, PTTG1IP / Fold change vs veh, PTTG1IP / RFU, CAPN2 / Fold change vs veh, CAPN2 / RFU, MED14 / Fold change vs veh, MED14 / RFU, SNORA58 / Fold change vs veh, SNORA58 / RFU, C1orf63 / Fold change vs veh, C1orf63 / RFU, LRRFIP1 / Fold change vs veh, LRRFIP1 / RFU, NDUFAF7 / Fold change vs veh, NDUFAF7 / RFU, SLC12A2 / Fold change vs veh, SLC12A2 / RFU, IBTK / Fold change vs veh, IBTK / RFU, ESF1 / Fold change vs veh, ESF1 / Fold change vs veh, TMEM50B / RFU, TAOK1 / Fold change vs veh, TAOK1 / RFU, ACBD3 / Fold change vs veh, ACBD3 / RFU, TMA16 / Fold change vs veh, TMA16 / RFU, RWDD3 / Fold change vs veh, RWDD3 / RFU, BCAT1 / Fold change vs veh, BCAT1 / RFU, EDEM3 / Fold change vs veh, EDEM3 / RFU, TMEM33 / Fold change vs veh, TMEM33 / RFU, WDR75 / Fold change vs veh, WDR75 / RFU, AHCTF1 / Fold change vs veh, AHCTF1 / RFU, TFRC / Fold change vs veh, TFRC / RFU, ZDHHC17 / Fold change vs veh, ZDHHC17 / RFU, NOM1 / Fold change vs veh, NOM1 / RFU, ARL8B / Fold change vs veh, ARL8B / RFU, ZBTB11 / Fold change vs veh, ZBTB11 / RFU, TAMM41 / Fold change vs veh, TAMM41 / RFU, KIAA1704 /// LOC100996395 / Fold change vs veh, KIAA1704 /// LOC100996395 / RFU, ING1 / Fold change vs veh, ING1 / RFU, TRMT61B / Fold change vs veh, TRMT61B / RFU, FUBP3 / Fold change vs veh, FUBP3 / RFU, TP53 / Fold change vs veh, TP53 / RFU, TNKS2 / Fold change vs veh, TNKS2 / RFU, ZFP14 / Fold change vs veh, ZFP14 / RFU, ACTR2 / Fold change vs veh, ACTR2 / RFU, PPP3R1 / Fold change vs veh, PPP3R1 / RFU, PIK3R1 / Fold change vs veh, PIK3R1 / RFU, HNRNPA1 / Fold change vs veh, HNRNPA1 / RFU, RNF170 / Fold change vs veh, RNF170 / RFU, ZNF28 / Fold change vs veh, ZNF28 / RFU, RNGTT / Fold change vs veh, RNGTT / RFU, OGT / Fold change vs veh, OGT / RFU, BRD1 / Fold change vs veh, BRD1 / RFU, MARS / Fold change vs veh, MARS / RFU, ZNF655 / Fold change vs veh, ZNF655 / RFU, FAHD1 / Fold change vs veh, FAHD1 / RFU, BDP1 / Fold change vs veh, BDP1 / RFU, LRRCC1 / Fold change vs veh, LRRCC1 / RFU, ARID1A / Fold change vs veh, ARID1A / RFU, ZNF146 / Fold change vs veh, ZNF146 / RFU, ZNF330 / Fold change vs veh, ZNF330 / RFU, GPN3 / Fold change vs veh, GPN3 / RFU, C9orf123 / Fold change vs veh, C9orf123 / RFU, N4BP2L2 / Fold change vs veh, N4BP2L2 / RFU, ARFIP1 / Fold change vs veh, ARFIP1 / RFU, FAM179B / Fold change vs veh, FAM179B / RFU, BCL10 / Fold change vs veh, BCL10 / RFU, UHRF1BP1L / Fold change vs veh, UHRF1BP1L / RFU, BET1 / Fold change vs veh, BET1 / RFU, CNOT2 / Fold change vs veh, CNOT2 / RFU, ZNF268 / Fold change vs veh, ZNF268 / Fold change vs veh, ZNF507 / RFU, DGCR2 / Fold change vs veh, DGCR2 / RFU, WDSUB1 / Fold change vs veh, WDSUB1 / Fold change vs veh, HSP90B1 /// MIR3652 / RFU, ADSS / Fold change vs veh, ADSS / RFU, GK / Fold change vs veh, GK / RFU, ZNF148 / Fold change vs veh, ZNF148 / RFU, TAF9 / Fold change vs veh, TAF9 / RFU, SLC1A5 / Fold change vs veh, SLC1A5 / RFU, SLMO2 / Fold change vs veh, SLMO2 / RFU, ABCC4 / Fold change vs veh, ABCC4 / RFU, LOC101060439 /// RAP1B / Fold change vs veh, LOC101060439 /// RAP1B / RFU, RFX7 / Fold change vs veh, RFX7 / RFU, GTPBP10 / Fold change vs veh, GTPBP10 / RFU, CNEP1R1 / Fold change vs veh, CNEP1R1 / RFU, BIVM-ERCC5 /// ERCC5 / Fold change vs veh, BIVM-ERCC5 /// ERCC5 / RFU, ILF3 / Fold change vs veh, ILF3 / RFU 11762660_at / Fold change /veh 11762660_at / RFU VCAN (11757783_s_at) / Fold change /veh VCAN (11757783_s_at) / RFU DDX43 (11728927_at) / Fold change /veh DDX43 (11728927_at) / RFU KRT8 (11758188_x_at) / Fold change /veh KRT8 (11758188_x_at) / RFU NKD1 (11759106_at) / Fold change /veh NKD1 (11759106_at) / RFU SRD5A1 (11742802_a_at) / Fold change /veh SRD5A1 (11742802_a_at) / RFU TPSAB1 /// TPSB2 (11721975_s_at) / Fold change /veh TPSAB1 /// TPSB2 (11721975_s_at) / RFU GSTM3 (11746129_a_at) / Fold change /veh GSTM3 (11746129_a_at) / RFU IL23R (11737362_x_at) / Fold change /veh IL23R (11737362_x_at) / RFU TMEM51 (11727254_a_at) / Fold change /veh TMEM51 (11727254_a_at) / RFU PIWIL2 (11732686_x_at) / Fold change /veh PIWIL2 (11732686_x_at) / RFU ORM1 (11744905_x_at) / Fold change /veh ORM1 (11744905_x_at) / RFU CCDC152 (11743942_at) / Fold change /veh CCDC152 (11743942_at) / RFU ECM1 (11717891_a_at) / Fold change /veh ECM1 (11717891_a_at) / RFU IL23R (11748794_a_at) / Fold change /veh IL23R (11748794_a_at) / RFU TNFAIP8L3 (11732012_x_at) / Fold change /veh TNFAIP8L3 (11732012_x_at) / RFU MBOAT4 (11741988_at) / Fold change /veh MBOAT4 (11741988_at) / RFU 11764193_at / Fold change /veh 11764193_at / RFU TMEM53 (11763286_at) / Fold change /veh TMEM53 (11763286_at) / RFU MAGEB2 (11727129_at) / Fold change /veh MAGEB2 (11727129_at) / RFU TMEM200A (11744735_a_at) / Fold change /veh TMEM200A (11744735_a_at) / RFU CCDC152 (11751479_a_at) / Fold change /veh CCDC152 (11751479_a_at) / RFU FAM211A (11726209_a_at) / Fold change /veh FAM211A (11726209_a_at) / RFU RGS16 (11746705_a_at) / Fold change /veh RGS16 (11746705_a_at) / RFU VCAN (11755009_s_at) / Fold change /veh VCAN (11755009_s_at) / RFU RHOB (11743442_s_at) / Fold change /veh RHOB (11743442_s_at) / RFU RGS16 (11720943_a_at) / Fold change /veh RGS16 (11720943_a_at) / RFU RGS16 (11720944_at) / Fold change /veh RGS16 (11720944_at) / RFU, VPS4B / Fold change vs veh, VPS4B / RFU, CREB1 / Fold change vs veh, CREB1 / RFU, DNAJC13 / Fold change vs veh, DNAJC13 / RFU, GNAQ / Fold change vs veh, GNAQ / RFU, CDK5R1 / Fold change vs veh, CDK5R1 / RFU, ZRANB3 / Fold change vs veh, ZRANB3 / RFU, CUL4A / Fold change vs veh, CUL4A / RFU, CCNY / Fold change vs veh, CCNY / RFU, UFL1 / Fold change vs veh, UFL1 / RFU, COG3 / Fold change vs veh, COG3 / RFU, DIAPH2 / Fold change vs veh, DIAPH2 / RFU, SKA2 / Fold change vs veh, SKA2 / RFU, AFF3 / Fold change vs veh, AFF3 / RFU, LMF1 / Fold change vs veh, LMF1 / RFU, IPO11 / Fold change vs veh, IPO11 / RFU, DFFB / Fold change vs veh, DFFB / RFU, FOXP1 / Fold change vs veh, FOXP1 / RFU, CARD8 / Fold change vs veh, CARD8 / RFU, STRN3 / Fold change vs veh, STRN3 / RFU, ADK / Fold change vs veh, ADK / RFU, RASSF2 / Fold change vs veh, RASSF2 / RFU, WIPF1 / Fold change vs veh, WIPF1 / RFU, LARP1B / Fold change vs veh, LARP1B / RFU, RASA1 / Fold change vs veh, RASA1 / RFU, RB1 / Fold change vs veh, RB1 / RFU, PPFIA1 / Fold change vs veh, PPFIA1 / RFU, MAT2A / Fold change vs veh, MAT2A / RFU, CCT5 / Fold change vs veh, CCT5 / RFU, WDR92 / Fold change vs veh, WDR92 / RFU, CUX1 / Fold change vs veh, CUX1 / RFU, TTC7A / Fold change vs veh, TTC7A / RFU, TMEM135 / Fold change vs veh, TMEM135 / RFU, DEPTOR / Fold change vs veh, DEPTOR / RFU, CPM / Fold change vs veh, CPM / RFU, DNAJB6 / Fold change vs veh, DNAJB6 / RFU, CACNA2D3 / Fold change vs veh, CACNA2D3 / RFU, DTX4 / Fold change vs veh, DTX4 / RFU, TFCP2 / Fold change vs veh, TFCP2 / RFU, GMCL1 /// GMCL1P1 / Fold change vs veh, GMCL1 /// GMCL1P1 / RFU, AEBP2 / Fold change vs veh, AEBP2 / RFU, SNHG1 /// SNORD22 /// SNORD25 /// SNORD26 /// SNORD27 /// SNORD28 /// SNORD29 /// SNORD31 / Fold change vs veh, SNHG1 /// SNORD22 /// SNORD25 /// SNORD26 /// SNORD27 /// SNORD28 /// SNORD29 /// SNORD31 / Fold change (Aza/veh), C12orf56 (ProbeSet 11735607_a_at) / Fold change (ACY-1035/veh), C12orf56 (ProbeSet 11735607_a_at) / Fold change (Aza/veh), FGFR1OP (ProbeSet 11751329_s_at) / Fold change (ACY-1035/veh), FGFR1OP (ProbeSet 11751329_s_at) / Fold change (Aza/veh), VPS36 (ProbeSet 11739960_a_at) / Fold change (ACY-1035/veh), VPS36 (ProbeSet 11739960_a_at) / RFU SYPL1 (11715823_x_at) / Fold change /veh SYPL1 (11715823_x_at) / RFU IGFBP7 (11715501_s_at) / Fold change /veh IGFBP7 (11715501_s_at) / RFU REEP3 (11722064_at) / Fold change /veh REEP3 (11722064_at) / RFU IGLL1 (11728026_x_at) / Fold change /veh IGLL1 (11728026_x_at): dose or concentration left out as unconfirmed
Conditions: ProbeSet 11717914_a_at; LIST B

Nc1ncn([C@@H]2O[C@H](CO)[C@@H](O)[C@H]2O)c(=O)n1 [azacitidine]
Fold change vs veh, BIVM-ERCC5 /// ERCC5: 0.92

From article PMC5218480 (PLoS ONE, 2017)
